The test concerns the target human Factor XIa (Homo sapiens (Human), UniProt P03951). Description: Factor XIa Assay. To be noted: for IC50: human Factor XIa 0.04 nM, 30 min pre-incubation at 25° C., substrate GPR-AFC, read-out: FXIa IC50; for inhibition at 1 µM: read-out: FXIa % Inh. @ 1000 nM. The test is classed as biochemical. How it is done:
The effectiveness of a compound of the present invention as an inhibitor of Coagulation Factor XIa can be determined using a relevant purified serine protease, and an appropriate synthetic substrate. The rate of hydrolysis of the chromogenic or fluorogenic substrate by the relevant serine protease was measured both in the absence and presence of compounds of the present invention. Assays were conducted at room temperature or at 37° C. […] A decrease in the rate of fluorescence change in the presence of inhibitor is indicative of enzyme inhibition. Such methods are known to one skilled in the art. The results of this assay are expressed as the half-maximal inhibitory concentrations (IC50), or the inhibitory constant, Ki.
Compounds were pre-incubated for 30 minutes at 25° C. with human (0.04 nM) Factor XIa in 50 mM HEPES buffer with 150 mM sodium chloride, 5 mM calcium chloride, 0.1% PEG 8000, pH 7.4. Factor XIa enzymatic activity was determined by addition of the substrate glycine-proline-arginine-7-amido-4-trifluoromethylcoumarin (GPR-AFC) and measurement of the fluorescence at 400/505 nm after a 60 minute incubation at 25° C. The % inhibition for each data point was calculated from the data and analyzed using the log (inhibitor) vs. response four parameters equation to determine the half-maximal inhibitory concentrations (IC50). The IC50 were converted to equilibrium inhibitory constants (Ki) using the Cheng-Prusoff equation.

One may read the IC50 as the concentration needed to halve the response being measured.

Each structure is given as a SMILES string.

human Factor XIa, sequence (P03951 388-625): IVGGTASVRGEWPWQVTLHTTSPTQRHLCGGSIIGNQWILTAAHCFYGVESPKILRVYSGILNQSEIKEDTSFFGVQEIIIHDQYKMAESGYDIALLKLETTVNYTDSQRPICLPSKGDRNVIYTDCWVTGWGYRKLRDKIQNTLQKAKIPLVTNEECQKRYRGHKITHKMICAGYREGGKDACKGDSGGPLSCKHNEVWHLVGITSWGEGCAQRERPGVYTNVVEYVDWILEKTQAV
human Factor XIa, sequence (P03951 19-387 partner): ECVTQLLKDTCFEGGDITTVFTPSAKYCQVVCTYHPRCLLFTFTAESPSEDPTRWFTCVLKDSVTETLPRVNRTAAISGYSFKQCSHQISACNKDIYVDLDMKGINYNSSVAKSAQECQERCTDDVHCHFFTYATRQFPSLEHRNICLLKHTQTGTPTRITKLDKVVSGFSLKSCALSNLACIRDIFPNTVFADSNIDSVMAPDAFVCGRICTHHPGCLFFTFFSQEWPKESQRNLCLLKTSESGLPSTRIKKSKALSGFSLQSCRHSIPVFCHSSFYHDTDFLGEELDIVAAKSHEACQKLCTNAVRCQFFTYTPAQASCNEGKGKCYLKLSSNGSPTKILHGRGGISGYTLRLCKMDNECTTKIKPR

Take `CC1CC1C[C@H](C(=O)Nc1ccc(C(=O)O)cc1)c1ccc(-c2c(OC(F)F)ccc(Cl)c2F)c[n+]1[O-]` (single isomer, unassigned) [Example 53]: the IC50 amounted to 155 nM.
In the case of `O=C(O)c1ccc(NC(=O)C(CC2CC(F)(F)C2)c2ccc(-c3c(OC(F)F)ccc(Cl)c3F)c[n+]2[O-])cc1` (racemic) [Example 49, (S)- and (R)-2-(1-((4-carboxyphenyl)amino)-3-(3,3-difluorocyclobutyl)-1-oxopropan-2-yl)-5-(3-chloro-6-(difluoromethoxy)-2-fluorophenyl)pyridine 1-oxide], the inhibition at 1 µM (@ 1000 nM compound) stood at 47%.
On to `CC(C1CC1)C(C(=O)Nc1ccc(C(=O)O)cc1)c1ccc(-c2c(OC(F)F)ccc(Cl)c2F)c[n+]1[O-]` (single isomer, unassigned) [Example 60, 2-(1-((4-carboxyphenyl)amino)-3-cyclopropyl-1-oxobutan-2-yl)-5-(3-chloro-6-(difluoromethoxy)-2-fluorophenyl)pyridine 1-oxide], for which the IC50 was 62 nM.
Same read-out and setting: for `CC1CC1C[C@H](C(=O)Nc1ccc(C(=O)O)cc1)c1ccc(-c2c(OC(F)F)ccc(Cl)c2F)c[n+]1[O-]` (single isomer, unassigned) [Example 54] the value was 370 nM.
Same read-out and setting: the figure for `CC1(C)CC1CC(C(=O)Nc1ccc(C(=O)O)cc1)c1ccc(-c2c(OC(F)F)ccc(Cl)c2F)c[n+]1[O-]` (single isomer, unassigned) [Example 111, 2-(1-((4-carboxyphenyl)amino)-3-(2,2-dimethylcyclopropyl)-1-oxopropan-2-yl)-5-(3-chloro-6-(difluoromethoxy)-2-fluorophenyl)pyridine 1-oxide] is 157 nM.
As to `C[C@]1(O)CC[C@@H](CC(C(=O)Nc2ccc(C(=O)O)cc2)c2ccc(-c3c(OC(F)F)ccc(Cl)c3F)c[n+]2[O-])CC1` (single isomer, unassigned) [Example 41, 2-(1-((4-carboxyphenyl)amino)-3-((1s,4s)-4-hydroxy-4-methylcyclohexyl)-1-oxopropan-2-yl)-5-(3-chloro-6-(difluoromethoxy)-2-fluorophenyl)pyridine 1-oxide], the IC50 is above 1000 nM. The inhibition at 1 µM (@ 1000 nM compound) is 49%.
For `CC1CCC1CC(C(=O)Nc1ccc(C(=O)O)cc1)c1ccc(-c2c(OC(F)F)ccc(Cl)c2F)c[n+]1[O-]` (single isomer, unassigned) [Example 106, 2-(1-((4-carboxyphenyl)amino)-3-(2-methylcyclobutyl)-1-oxopropan-2-yl)-5-(3-chloro-6-(difluoromethoxy)-2-fluorophenyl)pyridine 1-oxide], the IC50 amounted to 3.79 nM.
Take `CC1CCC1CC(C(=O)Nc1ccc(C(=O)O)cc1)c1ccc(-c2c(OC(F)F)ccc(Cl)c2F)c[n+]1[O-]` (single isomer, unassigned) [Example 103, 2-(1-((4-carboxyphenyl)amino)-3-(2-methylcyclobutyl)-1-oxopropan-2-yl)-5-(3-chloro-6-(difluoromethoxy)-2-fluorophenyl)pyridine 1-oxide]: the IC50 turned out to be 153 nM.
Turning to `CCOC(=O)c1ccc(NC(=O)C(CC2CC2)c2ccc(-c3c(C(F)F)ccc(Cl)c3F)c[n+]2[O-])cc1` (single isomer, unassigned) [Example 115, 5-(3-chloro-6-(difluoromethyl)-2-fluorophenyl)-2-(3-cyclopropyl-1-((4-(ethoxycarbonyl)phenyl)amino)-1-oxopropan-2-yl)pyridine 1-oxide], the inhibition at 1 µM (@ 1000 nM compound) was determined as 0%.
In the case of `Cc1cc(C(CC2CC2)C(=O)Nc2ccc(C(=O)O)cc2)[n+]([O-])cc1-c1c(OC(F)F)ccc(Cl)c1F` [Example 67, (S)- and (R)-2-(1-((4-carboxyphenyl)amino)-3-cyclopropyl-1-oxopropan-2-yl)-5-(3-chloro-6-(difluoromethoxy)-2-fluorophenyl)-4-methylpyridine 1-oxide], the IC50 came to 11 nM.
On the same count and under the same terms, the figure for `O=C(O)c1ccc(NC(=O)C(CC2CC(F)C2)c2ccc(-c3c(C(F)F)ccc(Cl)c3F)c[n+]2[O-])cc1` (single isomer, unassigned) [Example 80, 2-(1-((4-carboxyphenyl)amino)-3-(3-fluorocyclobutyl)-1-oxopropan-2-yl)-5-(3-chloro-6-(difluoromethyl)-2-fluorophenyl)pyridine 1-oxide] is 484 nM; for `Cc1cc(NC(=O)C(CC2CC2)c2ccc(-c3c(C(F)F)ccc(Cl)c3F)c[n+]2[O-])ccc1C(=O)O` (single isomer, unassigned) [Example 121, 2-(1-((4-carboxy-3-methylphenyl)amino)-3-cyclopropyl-1-oxopropan-2-yl)-5-(3-chloro-6-(difluoromethyl)-2-fluorophenyl)pyridine 1-oxide] it is 620 nM.
For the compound `COC(=O)c1ccc(NC(=O)C(CC2CC2)c2ccc(-c3c(C(F)F)ccc(Cl)c3F)c[n+]2[O-])cc1` (single isomer, unassigned) [Example 113, 5-(3-chloro-6-(difluoromethyl)-2-fluorophenyl)-2-(3-cyclopropyl-1-((4-(methoxycarbonyl)phenyl)amino)-1-oxopropan-2-yl)pyridine 1-oxide], the IC50 is 1000 nM. For the same compound, the “FXIa % Inh. @ 1000 nM” value (@ 1000 nM compound) worked out at 6%.
Consider `COc1ccc(Cl)c(F)c1-c1ccc(C(CC2CC2)C(=O)Nc2ccc(C(=O)O)cc2)[n+]([O-])c1` (single isomer, unassigned) [Example 10, (S)- or (R)-4-({2-[5-(3-chloro-2-fluoro-6-methoxyphenyl)-1-oxidopyridin-2-yl]-3-cyclopropylpropanoyl}amino) benzoic acid], for which the IC50 is above 1000 nM. Besides, where the note is “@ 1000 nM compound”, the inhibition at 1 µM is 13%.
Regarding `CC(C1CC1)C(C(=O)Nc1ccc(C(=O)O)cc1)c1ccc(-c2c(OC(F)F)ccc(Cl)c2F)c[n+]1[O-]` (single isomer, unassigned) [Example 58, 2-(1-((4-carboxyphenyl)amino)-3-cyclopropyl-1-oxobutan-2-yl)-5-(3-chloro-6-(difluoromethoxy)-2-fluorophenyl)pyridine 1-oxide], the IC50 came out at 334 nM.
For `O=C(O)c1ccc(NC(=O)C(CC2CC2)c2ccc(-c3c(C(F)(F)F)ccc(Cl)c3F)c[n+]2[O-])cc1` (single isomer, unassigned) [Example 26, (S)- or (R)-2-(1-((4-carboxyphenyl)amino)-3-cyclopropyl-1-oxopropan-2-yl)-5-(3-chloro-2-fluoro-6-(trifluoromethyl)phenyl)pyridine 1-oxide], the IC50 is above 1000 nM. Besides, where the note is “@ 1000 nM compound”, the inhibition at 1 µM worked out at 39%.
Consider `CCOC(=O)c1ccc(NC(=O)[C@H](CC2CCC2)c2ccc(-c3c(C(F)F)ccc(Cl)c3F)c[n+]2[O-])cc1` [Example 5, (R)-5-(3-chloro-6-(difluoromethyl)-2-fluorophenyl)-2-(3-cyclobutyl-1-((4-(ethoxycarbonyl)phenyl)amino)-1-oxopropan-2-yl)pyridine 1-oxide], for which the IC50 was 166 nM.
